In one data set the test system is Wnt/β-catenin signaling. Kind of data set: TOPflash reporter assay in transfected HEK293 cells. The data set is classed as cell-based, human. To be noted: TOPflash + Dvl; 50 μM EA with 1 mM NAC, 100 μM PDTC or 100 μM BHA; 24 hours. Background: Reporter assays use an easily measured gene product as a stand-in for the process of interest.
In the case of `COc1ccc(O)c(C(C)(C)C)c1` [BHA, 3-t-butyl-4-hydroxyanisole], the “effect on EA-induced inhibition of Wnt/β-catenin signaling” value was “did not reverse”.

On to `CC(=O)N[C@@H](CS)C(=O)O` [NAC, N-acetyl-L-cysteine], for which the “effect on EA-induced inhibition of Wnt/β-catenin signaling” value was “significantly prevented”.

Staying with this data set, now noted: cell-based system; data not shown.
Consider `CCCCS(=N)(=O)CCC(N)C(=O)O` (stereo not drawn) [BSO, buthionine sulfoximine], for which the “effect on Wnt/β-catenin signaling” value is recorded as “did not inhibit”.

The test system of a further data set is Primary CLL cells. Put plainly: Cell apoptosis assay (DiOC6/PI flow cytometry) in primary CLL cells. The data set is classed as cell-based, human. To be noted: 3 μM EA with NAC 1 mM or BHA 100 μM, 48 hours. (In flow cytometry, cells or beads pass a laser one at a time.)
As for `COc1ccc(O)c(C(C)(C)C)c1` [BHA, 3-t-butyl-4-hydroxyanisole], the “protection of CLL cells from EA-induced apoptosis” value is “had no effect”.

With `CC(=O)N[C@@H](CS)C(=O)O` [NAC, N-acetyl-L-cysteine], the “protection of CLL cells from EA-induced apoptosis” value was “significantly protected”.

For the next data set, the system named is Primary CLL cells. Put plainly: Cell viability assay (MTT) with primary CLL cells.
Settings: not given
For `CCC(C)C(=O)c1ccc(OCC(=O)O)c(Cl)c1Cl` (stereo not drawn) [Compound 42], the “decrease of CLL survival (in words)” value is given as “completely abrogated”.

Consider `C=C(CC)C(=O)c1ccc(OCC(=O)Nc2ccc(C(=O)NC(CCC(=O)OCC)C(=O)OCC)cc2)c(Cl)c1Cl` (stereo not drawn) [Compound 31], for which the “decrease of CLL survival (in words)” value is listed as “low micromolar concentrations”.

With `C=C(CC)C(=O)c1ccc(OCC(=O)Nc2ccc3[nH]cnc3c2)c(Cl)c1Cl` [Compound 29], the “decrease of CLL survival (in words)” value is recorded as “low micromolar concentrations”.

The data set is the same for the next values; noted with them: read-out: CLL Inhibition EC50; CLL survival; MTT, 48 hours.
Consider `C=C(CC)C(=O)c1ccc(OCC(=O)Nc2ccc(C(=O)O)cn2)c(Cl)c1Cl` [Compound 21], for which the EC50 is 14.9 µM.

For the molecule `C=C(CC)C(=O)c1ccc(OCC(=O)Nc2cc(Cl)ccc2C(=O)O)c(Cl)c1Cl` [Compound 10], the EC50 was found to be 13.8 µM.

`C=C(CC)C(=O)c1ccc(OCC(=O)Nc2ccc(C=CC(=O)OCC)cc2)c(Cl)c1Cl` [Compound 38]: the EC50 is 1.7 µM.

As to `C=C(CC)C(=O)c1ccc(OCC(=O)NCCc2c[nH]c3ccccc23)c(Cl)c1Cl` [Compound 20], the EC50 worked out at 5.9 µM.

Turning to `C=C(CC)C(=O)c1ccc(OCC(=O)Nc2ccc(C(N)=O)cc2)c(Cl)c1Cl` [Compound 4], the half-maximal effective concentration (EC50) was 3.7 µM.

Regarding `C=C(CC)C(=O)c1ccc(OCC(=O)Nc2ccc(C(=O)O)c(O)c2)c(Cl)c1Cl` [Compound 22], the EC50 was over 25 µM.

On to `CCC(C)C(=O)c1ccc(OCC(=O)O)c(Cl)c1Cl` (stereo not drawn) [Compound 42], for which the EC50 was over 25 µM.

As for `C=C(CC)C(=O)c1ccc(OCC(=O)NC2CCN(CC(=O)OC)CC2)c(Cl)c1Cl` [Compound 18], the EC50 is 10.6 µM.

`C=C(CC)C(=O)c1ccc(OCC(=O)NC(CS)C(=O)OCC)c(Cl)c1Cl` (stereo not drawn) [Compound 7]: the EC50 was found to be 4.8 µM.

Turning to `C=C(CC)C(=O)c1ccc(OCC(=O)Nc2ccc(C(=O)O)cc2)c(Cl)c1Cl` [Compound 6], the EC50 amounted to 5 µM.

As to `C=C(CC)C(=O)c1ccc(OCC(=O)Nc2ccc(C(=O)NC(CCC(=O)OCC)C(=O)OCC)cc2)c(Cl)c1Cl` (stereo not drawn) [Compound 31], the EC50 turned out to be 2.1 µM.

Turning to `C=C(CC)C(=O)c1ccc(OCC(=O)Nc2nc(C(=NOC)C(=O)O)cs2)c(Cl)c1Cl` [Compound 30], the EC50 is over 25 µM.

Regarding `C=C(CC)C(=O)c1ccc(OCC(=O)Nc2ccc3c(c2)C(=O)c2ccccc2C3=O)c(Cl)c1Cl` [Compound 32], the EC50 was found to be 2.1 µM.

Consider `C=C(CC)C(=O)c1ccc(OCC(=O)Nc2ccc(C(C)=O)cc2)c(Cl)c1Cl` [Compound 28], for which the EC50 was found to be 3.9 µM.

On to `C=C(CC)C(=O)c1ccc(OCC(=O)Nc2ccc(C#N)cc2)c(Cl)c1Cl` [Compound 8], for which the EC50 is 7.8 µM.

`C=C(CC)C(=O)c1ccc(OCC(=O)Nc2nc3ccccc3s2)c(Cl)c1Cl` [Compound 13]: the EC50 was 1.5 µM.

Regarding `C=C(CC)C(=O)c1ccc(OCC(=O)Nc2ccc3c(c2)C(=O)NC3=O)c(Cl)c1Cl` [Compound 12], the EC50 was 2.5 µM.

Consider `C=C(CC)C(=O)c1ccc(OCC(=O)Nc2ccc3[nH]cnc3c2)c(Cl)c1Cl` [Compound 29], for which the EC50 worked out at 3.2 µM.

For `C=C(CC)C(=O)c1ccc(OCC(=O)Nc2cc(OC)c(OC)cc2C(=O)O)c(Cl)c1Cl` [Compound 11], the EC50 was determined as 21.9 µM.

Consider `C=C(CC)C(=O)c1ccc(OCC(=O)Nc2ccc(Cc3ccc(N4C(=O)C5C6C=CC(C6)C5C4=O)cc3)cc2)c(Cl)c1Cl` (stereo not drawn) [Compound 27], for which the EC50 is 1.8 µM.

Turning to `C=C(CC)C(=O)c1ccc(OCC(=O)Nc2ccc(Cl)c(C(=O)O)c2)c(Cl)c1Cl` [Compound 9], the EC50 is 15.9 µM.

As to `C=C(CC)C(=O)c1ccc(OCC(=O)Nc2ccc(C(=O)OC)cc2)c(Cl)c1Cl` [Compound 23], the EC50 came out at 4.1 µM.

With `C=C(CC)C(=O)c1ccc(OCC(=O)Nc2cccc(C(=O)O)c2)c(Cl)c1Cl` [Compound 19], the EC50 is 20.6 µM.

Take `C=C(CC)C(=O)c1ccc(OCC(=O)NCCCN2CCCC2=O)c(Cl)c1Cl` [Compound 33]: the EC50 came to 13.8 µM.

On to `C=C(CC)C(=O)c1ccc(OCC(=O)NO)c(Cl)c1Cl` [Compound 5], for which the half-maximal effective concentration (EC50) worked out at 4.5 µM.

Another data set concerns lymphoma and myeloma cells.
Test: not given
Conditions: Schmidt et al., 2009; cited from earlier work.
For the molecule `Cc1cc(C2CCCCC2)n(O)c(=O)c1` [cic, ciclopiroxolamine], the induction of apoptosis result was “significant induction of apoptosis”.

Another data set deals with Normal PBMC. Put plainly: Cell viability assay (MTT) with normal peripheral blood mononuclear cells. The data set is classed as cell-based, human. To be noted: data not shown.
Regarding `C=C(CC)C(=O)c1ccc(OC)c(Cl)c1Cl` [Compound 43], the “toxicity to peripheral blood mononuclear cells (PBMC)” value is given as “highly toxic”.

Another data set deals with Wnt signaling. Put plainly: CellSensor LEF/TCF-bla SW480 cell-based assay (Wnt signaling inhibition). Also on record: species or system human.
Settings: not given
As to the method: To determine the specificity of compounds on Wnt/[…]-catenin pathway inhibition, CellSensor LEF/TCF-bla SW480 cell-based assay (Invitrogen, Carlsbad, Calif.) was used according to the supplier's instructions, but modified for a 96 well format. Cells were plated at 25,000 cells/well in assay medium in 96-well black plates with clear bottom (Corning) the day prior to compound treatment.
With `CCC(C)C(=O)c1ccc(OCC(=O)O)c(Cl)c1Cl` (stereo not drawn) [Compound 42], the “inhibition of Wnt signaling (in words)” value is on record as “completely abrogated”.

Regarding `C=C(CC)C(=O)c1ccc(OCC(=O)Nc2ccc(C(=O)NC(CCC(=O)OCC)C(=O)OCC)cc2)c(Cl)c1Cl` (stereo not drawn) [Compound 31], the “inhibition of Wnt signaling (in words)” value is “low micromolar concentrations”.

Take `C=C(CC)C(=O)c1ccc(OCC(=O)Nc2ccc3[nH]cnc3c2)c(Cl)c1Cl` [Compound 29]: the “inhibition of Wnt signaling (in words)” value is “low micromolar concentrations”.

Still in this data set, the particulars now being: Homo sapiens; LEF/TCF-bla SW480 cells, 20 hours.
In turn, `CCC(C)C(=O)c1ccc(OCC(=O)O)c(Cl)c1Cl` (stereo not drawn) [Compound 42] came in with an IC50 of over 50 µM.

Staying with this data set, now noted: LEF/TCF-bla SW480 cells, 20 hours.
With `C=C(CC)C(=O)c1ccc(OCC(=O)Nc2ccc(C(=O)O)cn2)c(Cl)c1Cl` [Compound 21], the IC50 was over 50 µM.

On to `C=C(CC)C(=O)c1ccc(OCC(=O)Nc2cc(Cl)ccc2C(=O)O)c(Cl)c1Cl` [Compound 10], for which the IC50 came to 9.62 µM.

As to `C=C(CC)C(=O)c1ccc(OCC(=O)Nc2ccc(C=CC(=O)OCC)cc2)c(Cl)c1Cl` [Compound 38], the 50% inhibitory concentration (IC50) was found to be 3.79 µM.

Molecule `C=C(CC)C(=O)c1ccc(OCC(=O)NCCc2c[nH]c3ccccc23)c(Cl)c1Cl` [Compound 20] registered an IC50 of 10.7 µM. This IC50 lies about 2.8-fold higher than the previous one.

The molecule `C=C(CC)C(=O)c1ccc(OCC(=O)Nc2ccc(C(N)=O)cc2)c(Cl)c1Cl` [Compound 4] registered an IC50 of 4.76 µM.

The molecule `C=C(CC)C(=O)c1ccc(OCC(=O)Nc2ccc(C(=O)O)c(O)c2)c(Cl)c1Cl` [Compound 22] came in with an IC50 of over 50 µM.

With `C=C(CC)C(=O)c1ccc(OCC(=O)NC2CCN(CC(=O)OC)CC2)c(Cl)c1Cl` [Compound 18], the IC50 is over 50 µM.

For `C=C(CC)C(=O)c1ccc(OCC(=O)NC(CS)C(=O)OCC)c(Cl)c1Cl` (stereo not drawn) [Compound 7], the IC50 is over 50 µM.

`C=C(CC)C(=O)c1ccc(OCC(=O)Nc2ccc(C(=O)O)cc2)c(Cl)c1Cl` [Compound 6] displayed an IC50 of 5.81 µM.

Take `C=C(CC)C(=O)c1ccc(OCC(=O)Nc2ccc(C(=O)NC(CCC(=O)OCC)C(=O)OCC)cc2)c(Cl)c1Cl` (stereo not drawn) [Compound 31]: the IC50 was determined as 2.61 µM.

`C=C(CC)C(=O)c1ccc(OCC(=O)Nc2nc(C(=NOC)C(=O)O)cs2)c(Cl)c1Cl` [Compound 30] came in with an IC50 of over 50 µM.

Take `C=C(CC)C(=O)c1ccc(OCC(=O)Nc2ccc3c(c2)C(=O)c2ccccc2C3=O)c(Cl)c1Cl` [Compound 32]: half-maximal inhibition (IC50) required 2.97 µM.

`C=C(CC)C(=O)c1ccc(OCC(=O)Nc2ccc(C(C)=O)cc2)c(Cl)c1Cl` [Compound 28] yielded an IC50 of 5.06 µM. Compared with the last molecule, the IC50 is about 1.7-fold higher.

For `C=C(CC)C(=O)c1ccc(OCC(=O)Nc2ccc(C#N)cc2)c(Cl)c1Cl` [Compound 8], the IC50 is 6.84 µM.

`C=C(CC)C(=O)c1ccc(OCC(=O)Nc2nc3ccccc3s2)c(Cl)c1Cl` [Compound 13] had an IC50 of 4.86 µM.

As for `C=C(CC)C(=O)c1ccc(OCC(=O)Nc2ccc3c(c2)C(=O)NC3=O)c(Cl)c1Cl` [Compound 12], the IC50 is 4.88 µM.

Take `C=C(CC)C(=O)c1ccc(OCC(=O)Nc2ccc3[nH]cnc3c2)c(Cl)c1Cl` [Compound 29]: inhibition was half-maximal at 3.62 µM (IC50). The IC50 values of the last two molecules are within 1.5-fold of each other.

With `C=C(CC)C(=O)c1ccc(OCC(=O)Nc2cc(OC)c(OC)cc2C(=O)O)c(Cl)c1Cl` [Compound 11], the IC50 was over 50 µM.

Turning to `C=C(CC)C(=O)c1ccc(OCC(=O)Nc2ccc(Cc3ccc(N4C(=O)C5C6C=CC(C6)C5C4=O)cc3)cc2)c(Cl)c1Cl` (stereo not drawn) [Compound 27], the IC50 was found to be 2.93 µM.

As to `C=C(CC)C(=O)c1ccc(OCC(=O)Nc2ccc(Cl)c(C(=O)O)c2)c(Cl)c1Cl` [Compound 9], the IC50 was over 50 µM.

The molecule `C=C(CC)C(=O)c1ccc(OCC(=O)Nc2ccc(C(=O)OC)cc2)c(Cl)c1Cl` [Compound 23] yielded an IC50 of 11.4 µM.

As for `C=C(CC)C(=O)c1ccc(OCC(=O)Nc2cccc(C(=O)O)c2)c(Cl)c1Cl` [Compound 19], the IC50 is 5.85 µM.

For `C=C(CC)C(=O)c1ccc(OCC(=O)NCCCN2CCCC2=O)c(Cl)c1Cl` [Compound 33], the IC50 was over 50 µM.

Molecule `C=C(CC)C(=O)c1ccc(OCC(=O)NO)c(Cl)c1Cl` [Compound 5] came in with an IC50 of 9.89 µM. This counts as single-digit micromolar.

Broadly, the EC50 is the concentration giving half of the maximal effect. As a reminder, the IC50 is the concentration at which inhibition is half-maximal. A high value points to lower potency.
